# Results taken from patent publication US8937050B2, “Methods and compositions for treatment of autism” (The Johns Hopkins University, priority 2011, dated 2015).
# Experiments:
# normal human fibroblasts = assay: Quantitative in-cell western analysis with anti-ATP5B; format: cell-based; settings: six days, FIG. 2B
# Description: The immunostaining of primary human fibroblasts with anti-ATP5B, DRAQ5 (Cell Signaling Technologies, Danvers, Mass.; a cellular DNA stain to normalize cell number), and secondary antibody IRDye 800CW donkey anti-mouse IgG (Li-cor Biosciences, Lincoln, Nebr.) was identical to the indirect immunofluorescence procedure described above and performed in duplicate. Imaging and quantification were performed using the Odyssey Imager (L1-cor Biosciences).
# In FIGS. 2A-B, the JNK inhibitor SP600125 (10 μM+inh) was utilized. […] Normal human fibroblasts were treated with each of the small four molecules with or without SP600125 for six days. Quantitative in-cell western analyses were performed using anti-ATP5B.
# [1] = test system: BIP, phosphorylated eIF2α, XBP1; assay: Immunoblot analyses of UPR protein expression and XBP1 splicing; format: cell-based, human
# Description: Cell lysates were collected in mammalian protein extraction reagent (m-PER; Thermo Scientific, Rockford, Ill.) plus 1×protease inhibitor (Sigma-Aldrich) and 1×Halt phosphatase inhibitor (Thermo Scientific). Denatured SDS-PAGE and immunoblot analyses were performed using the following antibodies: phosphorylated JNK and β-actin from Santa Cruz Biotechnology, HSP70, HSP90, BIP, phosphorylated eIF2α, and XBP1 from Cell Signaling, APG8 (Abgent, San Diego, Calif.), and SOD2 (Stressgen, Ann Arbor, Mich.). Quantitation was performed using a Fuji Intelligent Dark box II, FUJI LAS-1000 Lite software and Image Gauge v4.22 software (Tokyo, Japan).
# Expression of key components of the HSR, UPR, the autophagic response, and the antioxidant response were monitored at the transcriptional, translational, and/or post-translational level. These responses are known to be transiently activated in response to various cellular stressors. The degree of induction of each component can vary depending on the metabolic state of the cell (e.g., confluency, cell passage number) (Kultz 2003; Lallemand et al., 1998; Westerheide et al., 2009). Due to the transient nature of these responses, several components of each pathway were monitored at various time points within a 24 hour treatment. At least two normal human fibroblast lines were tested in three or more independent experiments. […] The average of the maximal increase in protein expression within a 24 hour time frame was also compared to the untreated sample. Activation of each pathway was assessed by an increase in one or more components of each pathway.
# UPR markers evaluated included the central UPR regulator glucose regulated protein 78 (BIP) and other components that are stimulated after the activation of the three ER transmembrane receptors: PKR-like ER kinase (PERK), inositol requiring 1 (IRE1), and activating transcription factor 6 (Fedoroff 2006). […] 2 alpha (eIF2a) is phosphorylated by PERK, attenuates general translation, and induces activating transcription factor 4 (ATF4). CHOP promotes reactivation of PERK. XBP1 mRNA is non-conventionally spliced by the endonuclease activity of IRE1 upon UPR activation.
# Normal human fibroblasts were treated with drugs as indicated. The expression of the UPR genes ATF4, CHOP, and BIP was measured as described in FIG. 2E. […] Normal human fibroblasts were treated at various time points and the average of the maximum protein expression of BIP (78 kDa) and phosphorylated eIF2α (38 kDa) is plotted as in FIG. 2F. Actin (43 kDa) was used as a loading control and is the same blot as FIG. 2F. UT denotes untreated cells. M denotes marker lane. […] Normal human fibroblasts were treated. The expression of the unspliced form (XBP1-us; 33 kDa) and the activated and spliced form of XBP1 (XBP1-s; 54 kDa) was analyzed by immunoblotting. BP1-s is a larger protein than XBP1-us due to non-canonical mRNA splicing which results in a larger carboxy-terminal domain. […] The average of the maximum expression of XBP1-s (within 24 hrs.) is plotted as in FIG. 2F. Actin was used as a loading control.
# human recombinant SIRT1 = biological target: T1, human recombinant SIRT1 (Homo sapiens, UniProt Q96EB6); assay: Fluorescence-based SIRT1 activity assay; format: biochemical; settings: for SIRT1 activity: low and high (10 times) concentration, FIG. 9
# T1 construct: purchased Cayman Chemical Company 10010401
# T1 sequence (Q96EB6 1-747): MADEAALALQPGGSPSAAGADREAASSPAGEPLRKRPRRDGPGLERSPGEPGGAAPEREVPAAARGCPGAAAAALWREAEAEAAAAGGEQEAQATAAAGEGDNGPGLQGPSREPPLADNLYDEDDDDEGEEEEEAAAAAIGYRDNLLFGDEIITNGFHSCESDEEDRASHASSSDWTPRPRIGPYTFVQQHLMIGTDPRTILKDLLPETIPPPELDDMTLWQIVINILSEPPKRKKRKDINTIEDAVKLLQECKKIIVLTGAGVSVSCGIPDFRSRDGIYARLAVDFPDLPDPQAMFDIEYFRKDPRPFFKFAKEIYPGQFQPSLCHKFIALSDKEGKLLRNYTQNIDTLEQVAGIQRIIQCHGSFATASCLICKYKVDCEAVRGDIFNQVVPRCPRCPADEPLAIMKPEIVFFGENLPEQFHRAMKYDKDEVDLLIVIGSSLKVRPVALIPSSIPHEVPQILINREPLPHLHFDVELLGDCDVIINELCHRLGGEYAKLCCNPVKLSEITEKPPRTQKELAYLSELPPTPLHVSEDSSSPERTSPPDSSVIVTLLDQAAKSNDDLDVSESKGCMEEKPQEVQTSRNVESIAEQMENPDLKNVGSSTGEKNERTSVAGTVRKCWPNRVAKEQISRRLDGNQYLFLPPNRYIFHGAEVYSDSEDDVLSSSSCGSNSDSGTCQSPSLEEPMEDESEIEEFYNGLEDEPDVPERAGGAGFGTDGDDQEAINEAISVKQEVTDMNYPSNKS
# Description: A fluorescence-based SIRT1 activity assay was performed in triplicate following the manufacturer's protocol (10010401; Cayman Chemical Company, Ann Arbor, Mich., USA). The percent developer interference was below 3% for each small molecule. The percent fluorophore interference was below 9% for each small molecule. The acceptable interference values were ≦10%.
# To determine whether SIRT1 activation was a common biochemical activity of the small molecules under study, a fluorescence-based in vitro SIRT1 activity assay was performed with two concentrations of each drug: that used to treat normal primary human fibroblasts in the experiments reported here (low), and 10 times that concentration, which is lethal in cell culture (high). […] This was a non-cell-based assay, and therefore, it is difficult to determine the effects of 4PBA and SFN on SIRT1 activity in vivo. Regardless, while SIRT1 activation may play a role in the induction of cellular stress responses (Anastasiou et al., 2006), direct biochemical activation or inhibition of SIRT1 is not necessary for the common pharmacological induction of the adaptive cell survival response by all four small molecules.
# SIRT1 activity assay. SIRT1 activity was measured by incubating an acetylated lysine substrate with human recombinant SIRT1, cosubstrate NAD+ and the indicated concentration of each small molecule. The percent inhibition of SIRT1 is plotted. (Bars=SEM for triplicate measurements; *p≦0.05; paired t-test).
# [2] = normal human fibroblasts, FIG. 4B
Compound,mitochondrial mass (ATP5B) compared to untreated cells (normal human fibroblasts),"BIP expression at the translational level [1, 2]","inhibition of SIRT1 activity (human recombinant SIRT1; 50 mM, high)",BIP increase at the translational level ([1]; in vitro sulforaphane studies),amount of spliced XBP1 protein increase ([1]; in vitro sulforaphane studies),total amount of XBP1 protein increase ([1]; in vitro sulforaphane studies),"eIF2α phosphorylation [1, 2]","pro-survival capabilities of all three UPR branches ([1]; transcriptional, post-transcriptional, translational and post-translational levels)",inhibition at 5000 µM (human recombinant SIRT1; 5 mM),inhibition at 50000 µM (human recombinant SIRT1; 50 mM),SIRT1 activity (human recombinant SIRT1)
4-phenylbutyrate [4PBA],2.4 fold,significantly increased,54%,–,–,–,–,–,–,–,–
"C[S@@+]([O-])CCCCN=C=S [SFN, 1-isothiocyanato-4R-(methylsulfinyl)butane]",2.2 fold,significantly increased,–,2-3 fold,3-4,3-4,modestly increased,activated,14%,40%,–
"NC(=O)NO [HU, hydroxyurea]",1.8 fold,significantly increased,–,–,–,–,–,–,–,–,no effect
"CC(/C=C/C(=O)NO)=C\[C@@H](C)C(=O)c1ccc(N(C)C)cc1 [TSA, trichostatin A]",2.5 fold,significantly increased,–,–,–,–,–,–,–,–,no effect
